According to patent US8530490B2, “Uracil compound or salt thereof having human deoxyuridine triphosphatase inhibitory activity” (Taiho Pharmaceutical Co., Ltd., priority 2008, dated 2013):

Biological target: human dUTPase (Homo sapiens (Human), UniProt P33316)
Test: Human dUTPase inhibitory effect: production of [5-3H]dUMP from [5-3H]dUTP, measured by HPLC with flow scintillation
Type: biochemical
Conditions: [5-3H]dUMP production from [5-3H]dUTP, 37° C., 15 minutes
Method in brief: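 E. coli-expressed purified human dUTPase reacted with 1 μM dUTP stock containing [5-3H]dUTP in Tris pH 7.4, MgCl2, 2-mercaptoethanol and albumin, 15 min at 37° C; stopped by 1 min at 100° C. [5-3H]dUMP formed was separated by reversed-phase ion-pair HPLC and quantified by flow scintillation versus water control.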

Sequence of human dUTPase (P33316 94-252): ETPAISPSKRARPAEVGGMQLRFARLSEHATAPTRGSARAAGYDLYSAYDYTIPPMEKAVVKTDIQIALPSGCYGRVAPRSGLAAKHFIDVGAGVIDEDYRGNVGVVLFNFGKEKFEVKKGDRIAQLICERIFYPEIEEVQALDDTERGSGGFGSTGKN

SMILES	IC50 [µM]
CC[C@@H](NS(=O)(=O)c1ccc(Cn2ccc(=O)[nH]c2=O)cc1)c1ccc(F)c(OCC2CC2)c1 [Example 97, (R)—N-(1-(3-(cyclopropylmethoxy)-4-fluorophenyl)propyl)-4-((2,4-dioxo-3,4-dihydropyrimidin-1(2H)-yl)methyl)benzenesulfonamide]	0.58
C[C@@H](NS(=O)(=O)CCCn1ccc(=O)[nH]c1=O)c1ccc(F)c(OCC2CC2)c1 [Example 98, (R)—N-(1-(3-(cyclopropylmethoxy)-4-fluorophenyl)ethyl)-3-(2,4-dioxo-3,4-dihydropyrimidin-1(2H)-yl)propane-1-sulfonamide]	0.66
CC[C@@](O)(CNS(=O)(=O)CCCn1ccc(=O)[nH]c1=O)c1ccc(F)c(OC2CCCC2)c1 [Example 99, (S)—N-(2-(3-(cyclopentyloxy)-4-fluorophenyl)-2-hydroxybutyl)-3-(2,4-dioxo-3,4-dihydroxypyrimidin-1(2H)-yl)propane-1-sulfonamide]	1.81
C[C@@H](NS(=O)(=O)CC/C=C/Cn1ccc(=O)[nH]c1=O)c1ccc(F)c(OCC2CC2)c1 [Example 100, (R,E)-N-(1-(3-(cyclopropylmethoxy)-4-fluorophenyl)ethyl)-5-(2,4-dioxo-3,4-dihydropyrimidin-1(2H)-yl)pent-3-ene-1-sulfonamide]	0.04
C[C@@H](NS(=O)(=O)CCCCCn1ccc(=O)[nH]c1=O)c1ccc(F)c(OCC2CC2)c1 [Example 101, (R)—N-(1-(3-(cyclopropylmethoxy)-4-fluorophenyl)ethyl)-5-(2,4-dioxo-3,4-dihydropyrimidin-1(2H)-yl)pentane-1-sulfonamide]	0.07
O=c1ccn(CCCCCS(=O)(=O)NCc2cccc(OCC3CC3)c2)c(=O)[nH]1 [Example 103, N-(3-(cyclopropylmethoxy)benzyl)-5-(2,4-dioxo-3,4-dihydropyrimidin-1(2H)-yl)pentane-1-sulfonamide]	0.52
C[C@@H](NS(=O)(=O)CCCn1ccc(=O)[nH]c1=O)c1cccc(OC2CCCC2)c1 [Example 104, (R)—N-(1-(3-(cyclopentyloxy)phenyl)ethyl)-3-(2,4-dioxo-3,4-dihydropyrimidin-1(2H)-yl)propane-1-sulfonamide]	1.46
C[C@@H](NS(=O)(=O)CC/C=C/Cn1ccc(=O)[nH]c1=O)c1cccc(OC2CCCC2)c1 [Example 105, (R,E)-N-(1-(3-(cyclopentyloxy)phenyl)ethyl)-5-(2,4-dioxo-3,4-dihydropyrimidin-1(2H)-yl)pent-3-ene-1-sulfonamide]	0.17
C[C@@H](NS(=O)(=O)CCCCCn1ccc(=O)[nH]c1=O)c1cccc(OC2CCCC2)c1 [Example 106, (R)—N-(1-(3-(cyclopentyloxy)phenyl)ethyl)-5-(2,4-dioxo-3,4-dihydropyrimidin-1(2H)-yl)pentane-1-sulfonamide]	0.12
C[C@@H](NS(=O)(=O)CCCn1ccc(=O)[nH]c1=O)c1cccc(OCC(F)F)c1 [Example 107, (R)—N-(1-(3-(2,2-difluoroethoxy)phenyl)ethyl)-3-(2,4-dioxo-3,4-dihydropyrimidin-1(2H)-yl)propane-1-sulfonamide]	1.72
C[C@@H](NS(=O)(=O)CCCn1ccc(=O)[nH]c1=O)c1cccc(OCC2CC2)c1 [Example 108, (R)—N-(1-(3-(cyclopropylmethoxy)phenyl)ethyl)-3-(2,4-dioxo-3,4-dihydropyrimidin-1(2H)-yl)propane-1-sulfonamide]	1.71
C[C@@H](NS(=O)(=O)CCCCCn1ccc(=O)[nH]c1=O)c1cccc(OCC2CC2)c1 [Example 109, (R)—N-(1-(3-(cyclopropylmethoxy)phenyl)ethyl)-5-(2,4-dioxo-3,4-dihydropyrimidin-1(2H)-yl)pentane-1-sulfonamide]	0.12
C[C@@H](NS(=O)(=O)CC/C=C/Cn1ccc(=O)[nH]c1=O)c1cccc(OCC2CC2)c1 [Example 110, (R,E)-N-(1-(3-(cyclopropylmethoxy)phenyl)ethyl)-5-(2,4-dioxo-3,4-dihydropyrimidin-1(2H)-yl)pent-3-ene-1-sulfonamide]	0.05
O=c1ccn(CCCS(=O)(=O)NC(c2ccccc2)c2ccccc2)c(=O)[nH]1 [Example 111, N-benzhydryl-3-(2,4-dioxo-3,4-dihydropyrimidin-1(2H)-yl)propane-1-sulfonamide]	8.27
O=c1ccn(CCCS(=O)(=O)NC(c2ccccc2)c2cccc(OCC3CC3)c2)c(=O)[nH]1 (stereo not drawn) [Example 112, N-((3-(cyclopropylmethoxy)phenyl)(phenyl)methyl)-3-(2,4-dioxo-3,4-dihydropyrimidin-1(2H)-yl)propane-1-sulfonamide]	2.23
O=c1ccn(C/C=C/CCS(=O)(=O)NCc2cccc(OCC3CC3)c2)c(=O)[nH]1 [Example 113, (E)-N-(3-(cyclopropylmethoxy)benzyl)-5-(2,4-dioxo-3,4-dihydropyrimidin-1(2H)-yl)pent-3-ene-1-sulfonamide]	0.41
O=c1ccn(CCCS(=O)(=O)N[C@H](c2ccc(F)cc2)c2cccc(OCC3CC3)c2)c(=O)[nH]1 [Example 114, (R)—N-((3-(cyclopropylmethoxy)phenyl)(4-fluorophenyl)methyl)-3-(2,4-dioxo-3,4-dihydropyrimidin-1(2H)-yl)propane-1-sulfonamide]	0.58

SMILES	IC50 [µM]
CC[C@@H](NS(=O)(=O)CCCn1ccc(=O)[nH]c1=O)c1ccc(F)c(OCC2CC2)c1 [Example 115, (R)—N-(1-(3-(cyclopropylmethoxy)-4-fluorophenyl)propyl)-3-(2,4-dioxo-3,4-dihydropyrimidin-1(2H)-yl)propane-1-sulfonamide]	0.25
O=c1ccn(CCCS(=O)(=O)N[C@H](c2ccc(F)cc2)c2ccc(F)c(OCC3CC3)c2)c(=O)[nH]1 [Example 116, (R)—N-((3-(cyclopropylmethoxy)-4-fluorophenyl)(4-fluorophenyl)methyl)-3-(2,4-dioxo-3,4-dihydropyrimidin-1(2H)-yl)propane-1-sulfonamide]	0.35
CC[C@@H](NS(=O)(=O)CCCn1ccc(=O)[nH]c1=O)c1ccccc1 [Example 118, (R)-3-(2,4-dioxo-3,4-dihydropyrimidin-1(2H)-yl)-N-(1-phenylpropyl)propane-1-sulfonamide]	9.8
O=c1ccn(CC2CCN(S(=O)(=O)NCc3cccc(OCC4CC4)c3)CC2)c(=O)[nH]1 [Example 128, N-(3-(cyclopropylmethoxy)benzyl)-4-((2,4-dioxo-3,4-dihydropyrimidin-1(2H)-yl)methyl)piperidine-1-sulfonamide]	0.27
O=c1ccn(CCCS(=O)(=O)N2CCC[C@@H]2C(O)(c2ccccc2)c2ccccc2)c(=O)[nH]1 [Example 130, (R)-1-(3-(2-(hydroxydiphenylmethyl)pyrrolidin-1-ylsulfonyl)propyl)pyrimidine-2,4(1H, 3H)-dione]	0.48
O=c1ccn(CCCS(=O)(=O)N2CCC[C@@H]2C(O)(c2ccc(F)cc2)c2ccc(F)cc2)c(=O)[nH]1 [Example 131, (R)-1-(3-(2-(bis(4-fluorophenyl)(hydroxy)methyl)pyrrolidin-1-ylsulfonyl)propyl)pyrimidine-2,4(1H, 3H)-dione]	0.4
O=c1ccn(CCCS(=O)(=O)N2CCC[C@@H]2C(O)(c2cccc(F)c2)c2cccc(F)c2)c(=O)[nH]1 [Example 132, (R)-1-(3-(2-(bis(3-fluorophenyl)(hydroxy)methyl)pyrrolidin-1-ylsulfonyl)propyl)pyrimidine-2,4(1H, 3H)-dione]	0.38
CN(CC1(c2ccccc2)CC1)S(=O)(=O)CCCn1ccc(=O)[nH]c1=O [Example 133, 3-(2,4-dioxo-3,4-dihydropyrimidin-1(2H)-yl)-N-methyl-N-((1-phenylcyclopropyl)methyl)propane-1-sulfonamide]	6.56
CN(CCc1cccc(OCC2CC2)c1)S(=O)(=O)CCCn1ccc(=O)[nH]c1=O [Example 134, N-(3-(cyclopropylmethoxy)phenethyl)-3-(2,4-dioxo-3,4-dihydropyrimidin-1(2H)-yl)-N-methylpropane-1-sulfonamide]	4.54
COc1cccc(S(=O)(=O)NC(C)(C)CCCOCn2ccc(=O)[nH]c2=O)c1 [Example 135, N-(5-((2,4-dioxo-3,4-dihydropyrimidin-1(2H)-yl)methoxy)-2-methylpentan-2-yl)-3-methoxybenzenesulfonamide]	1.12
CC(C)(CCCOCn1ccc(=O)[nH]c1=O)NS(=O)(=O)c1ccc(Cl)cc1 [Example 136, 4-chloro-N-(5-((2,4-dioxo-3,4-dihydropyrimidin-1(2H)-yl)methoxy)-2-methylpentan-2-yl)benzenesulfonamide]	3.94
CC(C)(CCCOCn1ccc(=O)[nH]c1=O)NS(=O)(=O)c1ccc(Cl)c(Cl)c1 [Example 137, 3,4-dichloro-N-(5-((2,4-dioxo-3,4-dihydropyrimidin-1(2H)-yl)methoxy)-2-methylpentan-2-yl)benzenesulfonamide]	2.05
CC(C)(CCCOCn1ccc(=O)[nH]c1=O)NS(=O)(=O)c1cc(Cl)c(Cl)s1 [Example 138, 4,5-dichloro-N-(5-((2,4-dioxo-3,4-dihydropyrimidin-1(2H)-yl)methoxy)-2-methylpentan-2-yl)thiophene-2-sulfonamide]	3.89
CC(C)(CCCOCn1ccc(=O)[nH]c1=O)NS(=O)(=O)c1cc(Cl)cc(Cl)c1 [Example 139, 3,5-dichloro-N-(5-((2,4-dioxo-3,4-dihydropyrimidin-1(2H)-yl)methoxy)-2-methylpentan-2-yl)benzenesulfonamide]	4.99
CC(C)(CCCOCn1ccc(=O)[nH]c1=O)NS(=O)(=O)c1cccc(Br)c1 [Example 141, 3-bromo-N-(5-((2,4-dioxo-3,4-dihydropyrimidin-1(2H)-yl)methoxy)-2-methylpentan-2-yl)benzenesulfonamide]	4.35
CC(C)(CCCOCn1ccc(=O)[nH]c1=O)NS(=O)(=O)c1ccccc1Cl [Example 142, 2-chloro-N-(5-((2,4-dioxo-3,4-dihydropyrimidin-1(2H)-yl)methoxy)-2-methylpentan-2-yl)benzenesulfonamide]	7.64
